Experimental data taken from patent publication US20040006070A1, “Intraspinal continuous infusion of midazolam hydrochloride for the treatment of pain” (priority 2002, published 2004).
Where a name gives a salt, the structure may show the parent alone.

Assay: Bloodwork: complete blood count, electrolytes, extended blood chemistry
Type: in vivo, sheep
Experimental: Indirect blood pressure, pulse recording, pain testing (mechanical stimulus device, cold and warm water baths see description in procedure) and weight were taken on days 1, 3, 7, 15, 22, 29, 36, and 43. Venous blood samples (15 ml drawn from the jugular vein with Vacutainer brand blood collection tubes) for complete blood count, electrolytes, and extended blood chemistry were drawn on days 1, 15, and 43 (mild procedure only light hand restraint necessary).

[1] = sheep #84 Roadrunner, 15 mg/day, Day 1
[2] = sheep #84 Roadrunner, 15 mg/day, Day 15
[3] = sheep #84 Roadrunner, 15 mg/day, Day 43

Cc1ncc2n1-c1ccc(Cl)cc1C(c1ccccc1F)=NC2 [Midazolam, midazolam hydrochloride]
Total Bili [1]: 0.3 mg/dL
Total Prot [1]: 5.9 g/dL
WBC [1]: 5390 µL⁻¹
ALT [2]: 2 U/L
AST [2]: 60 U/L
Albumin [2]: 3.7 g/dL
Alk Phos [2]: 98 U/L
BUN [2]: 11 mg/dL
CPK [2]: 53 U/L
Cholesterol [2]: 56 mg/dL
Creatinine [2]: 1.3 mg/dL
Differential Count: Eosin [2]: 12%
Differential Count: Lymph [2]: 44%
Differential Count: Seg [2]: 44%
Gamma GT [2]: 62 U/L
Glucose [2]: 66 mg/dL
Hct [2]: 31.8%
Hgb [2]: 10.8 g/dL
K+ [2]: 4.8 mEq/l
MCH [2]: 10.8 pg
MCHC [2]: 34.0 g/dL
MCV [2]: 31.8 fL
Na+ [2]: 150 mEq/l
Phos [2]: 6.6 mg/dL
Platlet Count [2]: 848000 µL⁻¹
RBC [2]: 1e+07 µL⁻¹
Total Bili [2]: 0.1 mg/dL
Total Prot [2]: 6.4 g/dL
WBC [2]: 5130 µL⁻¹
ALT [3]: 7 U/L
AST [3]: 65 U/L
Albumin [3]: 3.54 g/dL
Alk Phos [3]: 143 U/L
BUN [3]: 11 mg/dL
CPK [3]: 102 U/L
Cholesterol [3]: 57 mg/dL
Creatinine [3]: 1.2 mg/dL
Differential Count: Atyp lym [3]: 1%
Differential Count: Eosin [3]: 2%
Differential Count: Lymph [3]: 67%
Differential Count: Mono [3]: 1%
Differential Count: Seg [3]: 29%
Gamma GT [3]: 56 U/L
Glucose [3]: 74 mg/dL
Hct [3]: 35.0%
Hgb [3]: 11.9 g/dL
K+ [3]: 4.6 mEq/l
MCH [3]: 11.8 pg
MCHC [3]: 34.0 g/dL
MCV [3]: 34.7 fL
Na+ [3]: 149 mEq/l
Phos [3]: 7.1 mg/dL
Platlet Count [3]: 727000 µL⁻¹
RBC [3]: 1.01e+07 µL⁻¹
Total Bili [3]: 0.1 mg/dL
Total Prot [3]: 6.0 g/dL
WBC [3]: 5150 µL⁻¹
ALT (sheep #85, 15 mg/day, Day 1): 7 U/L
AST (sheep #85, 15 mg/day, Day 1): 76 U/L
Alk Phos (sheep #85, 15 mg/day, Day 1): 50 U/L
BUN (sheep #85, 15 mg/day, Day 1): 10 mg/dL
CPK (sheep #85, 15 mg/day, Day 1): 99 U/L
Cholesterol (sheep #85, 15 mg/day, Day 1): 52 mg/dL
Differential Count: Baso (sheep #85, 15 mg/day, Day 1): 1%
Differential Count: Eosin (sheep #85, 15 mg/day, Day 1): 1%
Differential Count: Lymph (sheep #85, 15 mg/day, Day 1): 22%
Differential Count: Mono (sheep #85, 15 mg/day, Day 1): 1%
Differential Count: Seg (sheep #85, 15 mg/day, Day 1): 75%
Gamma GT (sheep #85, 15 mg/day, Day 1): 68 U/L
Glucose (sheep #85, 15 mg/day, Day 1): 75 mg/dL
Hct (sheep #85, 15 mg/day, Day 1): 28.0%
Hgb (sheep #85, 15 mg/day, Day 1): 9.2 g/dL
MCH (sheep #85, 15 mg/day, Day 1): 10.7 pg
MCHC (sheep #85, 15 mg/day, Day 1): 32.8 g/dL
MCV (sheep #85, 15 mg/day, Day 1): 32.7 fL
Na+ (sheep #85, 15 mg/day, Day 1): 149 mEq/l
Platlet Count (sheep #85, 15 mg/day, Day 1): 994000 µL⁻¹
RBC (sheep #85, 15 mg/day, Day 1): 8.57e+06 µL⁻¹
WBC (sheep #85, 15 mg/day, Day 1): 4780 µL⁻¹
Total Bili (sheep #85, 15 mg/day, Day 1, ref 0.14-0.32): 0.1 mg/dL
Creatinine (sheep #85, 15 mg/day, Day 1, ref 1-2.7): 1.4 mg/dL
Albumin (sheep #85, 15 mg/day, Day 1, ref 2.4-3): 3.4 g/dL
K+ (sheep #85, 15 mg/day, Day 1, ref 3.9-5.4): 4.7 mEq/l
Phos (sheep #85, 15 mg/day, Day 1, ref 5-7.3): 5.3 mg/dL
Total Prot (sheep #85, 15 mg/day, Day 1, ref 6-7.9): 6.1 g/dL
ALT (sheep #85, 15 mg/day, Day 15): 10 U/L
AST (sheep #85, 15 mg/day, Day 15): 56 U/L
Alk Phos (sheep #85, 15 mg/day, Day 15): 54 U/L
BUN (sheep #85, 15 mg/day, Day 15): 17 mg/dL
CPK (sheep #85, 15 mg/day, Day 15): 56 U/L
Cholesterol (sheep #85, 15 mg/day, Day 15): 58 mg/dL
Differential Count: Eosin (sheep #85, 15 mg/day, Day 15): 12%
Differential Count: Lymph (sheep #85, 15 mg/day, Day 15): 44%
Differential Count: Seg (sheep #85, 15 mg/day, Day 15): 44%
Gamma GT (sheep #85, 15 mg/day, Day 15): 54 U/L
Hct (sheep #85, 15 mg/day, Day 15): 31.8%
Hgb (sheep #85, 15 mg/day, Day 15): 10.8 g/dL
MCH (sheep #85, 15 mg/day, Day 15): 10.8 pg
MCHC (sheep #85, 15 mg/day, Day 15): 34.0 g/dL
MCV (sheep #85, 15 mg/day, Day 15): 31.8 fL
Na+ (sheep #85, 15 mg/day, Day 15): 148 mEq/l
Platlet Count (sheep #85, 15 mg/day, Day 15): 848000 µL⁻¹
RBC (sheep #85, 15 mg/day, Day 15): 1e+07 µL⁻¹
WBC (sheep #85, 15 mg/day, Day 15): 5130 µL⁻¹
Total Bili (sheep #85, 15 mg/day, Day 15, ref 0.14-0.32): 0.0 mg/dL
Creatinine (sheep #85, 15 mg/day, Day 15, ref 1-2.7): 1.2 mg/dL
Albumin (sheep #85, 15 mg/day, Day 15, ref 2.4-3): 2.8 g/dL
K+ (sheep #85, 15 mg/day, Day 15, ref 3.9-5.4): 5.0 mEq/l
Phos (sheep #85, 15 mg/day, Day 15, ref 5-7.3): 6.0 mg/dL
Total Prot (sheep #85, 15 mg/day, Day 15, ref 6-7.9): 5.4 g/dL
ALT (sheep #85, 15 mg/day, Day 43): 8 U/L
AST (sheep #85, 15 mg/day, Day 43): 59 U/L
Alk Phos (sheep #85, 15 mg/day, Day 43): 92 U/L
BUN (sheep #85, 15 mg/day, Day 43): 13 mg/dL
CPK (sheep #85, 15 mg/day, Day 43): 81 U/L
Cholesterol (sheep #85, 15 mg/day, Day 43): 72 mg/dL
Differential Count: Eosin (sheep #85, 15 mg/day, Day 43): 4%
Differential Count: Lymph (sheep #85, 15 mg/day, Day 43): 75%
Differential Count: Mono (sheep #85, 15 mg/day, Day 43): 3%
Differential Count: Seg (sheep #85, 15 mg/day, Day 43): 18%
Gamma GT (sheep #85, 15 mg/day, Day 43): 60 U/L
Glucose (sheep #85, 15 mg/day, Day 43): 76 mg/dL
Hct (sheep #85, 15 mg/day, Day 43): 34.7%
Hgb (sheep #85, 15 mg/day, Day 43): 11.9 g/dL
MCH (sheep #85, 15 mg/day, Day 43): 12.6 pg
MCHC (sheep #85, 15 mg/day, Day 43): 34.1 g/dL
MCV (sheep #85, 15 mg/day, Day 43): 36.8 fL
Na+ (sheep #85, 15 mg/day, Day 43): 148 mEq/l
Platlet Count (sheep #85, 15 mg/day, Day 43): 604000 µL⁻¹
RBC (sheep #85, 15 mg/day, Day 43): 9.44e+06 µL⁻¹
WBC (sheep #85, 15 mg/day, Day 43): 3130 µL⁻¹
Total Bili (sheep #85, 15 mg/day, Day 43, ref 0.14-0.32): 0.1 mg/dL
Creatinine (sheep #85, 15 mg/day, Day 43, ref 1-2.7): 1.3 mg/dL
Albumin (sheep #85, 15 mg/day, Day 43, ref 2.4-3): 3.6 g/dL
K+ (sheep #85, 15 mg/day, Day 43, ref 3.9-5.4): 4.9 mEq/l
Phos (sheep #85, 15 mg/day, Day 43, ref 5-7.3): 7.1 mg/dL
Total Prot (sheep #85, 15 mg/day, Day 43, ref 6-7.9): 6.4 g/dL
ALT (sheep #91, 15 mg/day, Day 1): 7 U/L
AST (sheep #91, 15 mg/day, Day 1): 61 U/L
Alk Phos (sheep #91, 15 mg/day, Day 1): 132 U/L
BUN (sheep #91, 15 mg/day, Day 1): 9 mg/dL
CPK (sheep #91, 15 mg/day, Day 1): 52 U/L
Cholesterol (sheep #91, 15 mg/day, Day 1): 47 mg/dL
Differential Count: Eosin (sheep #91, 15 mg/day, Day 1): 1%
Differential Count: Lymph (sheep #91, 15 mg/day, Day 1): 21%
Differential Count: Mono (sheep #91, 15 mg/day, Day 1): 2%
Differential Count: Seg (sheep #91, 15 mg/day, Day 1): 76%
Gamma GT (sheep #91, 15 mg/day, Day 1): 51 U/L
